We go through two molecules from patent publication US5384113A, “Stabilizers to prevent autoradiolysis of radiolabeled peptides and proteins” (priority 1993, dated 1995).

Data set [1] in a line: Stability (radiochemical purity) of 111In DTPA-octreotide solution at room temperature by reverse-phase HPLC with radiometric detector. To be noted: alone or in combination with other stabilizers; summary of Examples 1-7. Format: physicochemical. How it is done:
To a lyophilized kit containing 10 μg DTPA-octreotide (N-[3,6,9,9-tetrakis(carboxymethyl)-3,6,9-triazanonanoyl]-D-phenylalanyl-L -hemicystyl-L-phenylalanyl-D-tryptophyl-L-lysyl-L-threonyl-L-hemicydyyl-L-t hreoninol cyclic (2→7) disulfide, MW=1394.60 gm/mol), 5.6 mg trisodium citrate dihydrate, and 0.4 mg citric acid monohydrate was added 1.0 ml of 0.02M HCl containing 4.70 mCi of ^111 In. The pH of the solution was 4.5. The solution was kept at room temperature and monitored for the amount of ^111 In DTPA-octreotide using reverse-phase HPLC and a Beckman 170 radiometric detector. […]
To a lyophilized kit containing 10 μg DTPA-octreotide (N-[3,6,9,9-tetrakis(carboxymethyl)-3,6,9-triazanonanoyl]-D-phenylalanyl-L -hemicystyl-L-phenylalanyl-D-tryptophyl-L-lysyl-L-threonyl-L-hemicydyyl-L-t hreoninol cyclic (2→7) disulfide, MW=1394.60 gm/mol), 5.6 mg trisodium citrate dihydrate, 0.4 mg citric acid monohydrate, and 1.0 mg inositol was added 1.0 ml of 0.02M HCl containing 6.04 mCi of ^111 In. […] The solution was kept at room temperature and monitored for the amount of ^111 In DTPA-octreotide using reverse-phase HPLC and a Beckman 170 radiometric detector. […]

The test system of another data set is somatostatin receptors. To be noted: variety of human tumors; cited from earlier work.

For the molecule `O=C(O)c1cc(O)ccc1O` [gentisic acid, 2,5-dihydroxybenzoic acid], the “Prevention of radiolysis of radiolabeled peptides (stabilizer effect)” value in data set [1] was “very effective at preventing radiolysis”.
On to `C[C@@H](O)[C@@H]1NC(=O)[C@H](CCCCN)NC(=O)[C@@H](Cc2c[nH]c3ccccc23)NC(=O)[C@H](Cc2ccccc2)NC(=O)[C@@H](NC(=O)[C@H](N)Cc2ccccc2)CSSC[C@@H](C(=O)N[C@H](CO)[C@@H](C)O)NC1=O` [octreotide], for which the “Binding affinity to somatostatin receptors” value with somatostatin receptors was “very high binding affinity”.
